From patent US6391304B1, “Peptides derived from the ENV gene of the feline immunodeficiency virus and their applications” (Centre National de la Recherche Scientifique, priority 1997, dated 2002)
Where “and” joins values, the source holds several entries; their conditions need not be identical. Equal entries are not always repeated. Ends that are not written are not given here.

What was measured:
[1] = system: envelope glycoproteins of the Wo strain; test: Immunoprecipitation of envelope glycoproteins by sera (infected PBM cells); type: in vivo; conditions: PBM cell lysates after acute infection with FIV Wo; group of four cats
Text: (§1) The sera collected on the day of the test (at a dilution of 1/40) are used to immunoprecipitate the envelope glycoproteins derived from the metabolically labelled FL-4 cells and feline mononuclear cells (PBM cells) infected with the FIV Wo strain, as described in G. Pancino et al. (Virology, 1995, 206, 796-806).
Given that the TM3-19 peptide, deduced from the Env sequence of the FIV Wo strain, comprises 4 different residues out of 19, relative to the Petaluma sequence, the capacity to immunoprecipitate sera before the test of the cats immunized with the TM3-19 peptide was tested against the envelope glycoproteins of the Wo strain, obtained from PBM cell lysates after acute infection with the FIV Wo strain.

FIV Wo isolate [2] = test: Plasmatic viraemia by isolation of the virus in PBM cell culture; type: in vivo, cats
Text: (§2) The cats are subjected to a virulence test, one week after the final immunization, by means of an intraperitoneal inoculation of 10 CID50 of FIV Wo isolate, one CID50 corresponding to the dose capable of infecting 50% of the cats.
The plasmatic viraemia is quantified by culturing PBM cells (Ho D. D. et a., N. Engl. J. Med., 1989, 321, 1621-1625).
The infection is estimated by determining the p25 by ELISA (Petcheck, IDEXX) in culture supernatants, obtained 14 and 21 days after the inoculation of different volumes of plasma (0.2, 2, 10, 40, 200 or 1000 μl). The final plasmatic dilution giving a positive culture is considered as the limit point.
The plasmatic viraemia is expressed as TCDID50/ml of plasma (→doses capable of infecting 50% of the tissue cultures).
For the cats immunized with the TM3-19 peptide and the control cats, the plasmatic viral load is evaluated 3 weeks after the test by isolating the virus.

[3] = system: p25 recombinant FIV capsid protein; test: Seroconversion ELISA after the virulence test, p25; type: in vivo, cats; conditions: for Binding of the sera to p25, 3 weeks after the virulence test / Binding of the sera to p25, 4 weeks after the virulence test / Binding of the sera to p25, 5 weeks after the virulence test: ELISA, seral dilution 1/100, individual cats
Experimental: as §2
(§3) The production on of antibodies is evaluated before the test by means of an ELISA using an immobilized peptide (SU2, SU5, TM2 or TM3-19) and immunoprecipitation. After the test, the seroconversion is monitored by an ELISA using immobilized envelope peptides and a recombinant FTV capsid protein.
(§4) The ELISA with the immobilized envelope peptides corresponding to the immunogenic domains SU2 and TM2 and with the immobilized recombinant p25 protein (FIV capsid protein) is carried out as described in Avraméas A. et al. (Res. Virol., 1993, 144, 209-218).
(§5) Microplates (Immunolon II, Dynatech) are coated with 0.5 μg/well for the peptides and with 0.1 μg/well for the p25 protein.
(§6) The tests are carried out in duplicate and the results are expressed as average values.
(§7) After the test, the seroconversion against the envelope peptides and the p25 protein is evaluated at serum dilutions of 1/25 and 1/100, respectively.
(§8) The absorbance values (at 405 nm) are corrected by subtraction of the absorbance values obtained by binding with an immobilized control peptide.
(§9) The tests are normalized with reference to the binding of a mixture of serum from cats infected with FIV with a peptide representing the immunodominant domain of the FIV transmembrane glycoprotein (TM2) (Avraméas A. et al., Res. Virol., 1993, 144, 209-218).

FIV Wo = test: Test of reduction of viral infectivity in mitogen-activated feline PBM cells; type: cell-based; conditions: PBMC cells activated with a mitogen; serum dilution 1/5
Experimental: For the test of reduction of the viral infectivity, serial dilutions ( 1/50, 1/100, 1/200 and 1/400) of a stock suspension of Wo isolate and a single dilution of serum (⅕) are prepared in a complete RPMI medium containing 50 μM of 2-ME and 10 mM of HEPES.
The feline serum is mixed with an equal volume of the serial dilutions of virus and incubated in a final volume of 100 μl for one hour at 37° C.
The concentration of PBM cells activated with a mitogen is adjusted to 4×10^6/ ml in a complete RPMI medium comprising 2-ME, HEPES and 200 U/ml of recombinant human IL-2. 0.1 ml of cell suspension (4×10^5 cells) is added to the tubes.
After incubation overnight, the viral inoculum is recovered by washing the cells twice with 0.5 ml of complete RPMI medium.
The cells are then resuspended fin 0.2 ml of feline serum diluted in a complete RDMI medium comprising 2-ME, HEPES and 100 U/ml of IL-2, and then transferred into the wells of 96-well microtitration plates.
Half of the medium is replaced four days after the infection.
10 μl aliquots are recovered 7 days after the infection, for an analysis of the reverse transcriptase activity.
Given that the Wo strain was not adapted by passage on CrFK cells, the influence of the antibodies was studied on the infection in feline PBMC cells.

FIV Wo isolate [4] = test: Viral load in the tissues by competitive RT-PCR; type: in vivo, cats; conditions: 5 weeks after the test, FIG. 4
Text: The cats are sacrificed five weeks after the virulence test. The lymphoid organs (spleen, thymus, axial lymphatic ganglia) are recovered and frozen in liquid nitrogen, for extraction of the RNA.
Frozen spleen and thymus tissues are reduced to powder and immediately dispersed in the lysis buffer provided with the RNA extraction kit (RNeasy, Qiagene), with the aid of a tissue homogenizer (Ultra-Turrax). The frozen axillary lymphatic ganglia are dispersed directly in the lysis buffer; the RNA is then extracted using the RNeasy kit, according to the manufacturer's instructions.
The contaminant DNA is removed by hydrolysis with DNase 1 (RQ1. RNase-free DNase, Promega).
The viral load in the tissues is evaluated 5 weeks after the test by counting the number of copies of viral RNA in the axillary lymphatic ganglia and in the thymus by competitive RT-PCR.
Given that the amplified fragment (amplicon) is located in the intron of the sub-genomic viral RNA, the copies of viral RNA counted in the tissues represent the complete transcripts, which are either intracellular or encapsidated in the extracellular viral particles.

[5] = system: viral components (SU2 and TM2 peptides, recombinant capsid protein); test: Antiviral humoral response after the virulence test (ELISA with viral components); type: in vivo; conditions: in comparison with the control cats
Experimental: as §3, §4, §7
After testing with the FIV Wo strain, most of the cats show a humoral response with respect to the viral components, as illustrated by the ELISA with the SU2 and TM2 peptides, derived from the external and transmembrane glycoproteins, respectively, and the recombinant capsid protein.

SU2 envelope peptide = test: Seroconversion ELISA after the virulence test, SU2 peptide; type: in vivo, cats
Experimental: as §2, §3, §4, §5, §6, §7, §8, §9

[6] = system: envelope glycoproteins of the Petaluma strain; test: Immunoprecipitation of envelope glycoproteins by sera (metabolically labelled FL-4 cells); type: in vivo, FIV; conditions: lysates of chronically infected FL-4 cells; groups of four cats
Text: as §1
The recognition of the envelope glycoproteins is estimated by immunoprecipitation of the biosynthetically labelled envelope glycoprotein with sera collected on the day of the test, as summarized in Table I.

[7] = ELISA, seral dilution 1/25, individual cats

| Substance | cats whose sera precipitate the envelope protein of the Wo strain [1] | Plasmatic viraemia, PBMC culture (FIV Wo isolate [2]; 3 weeks after the test with 10 CID50 of FIV Wo, individual cats) | reduction in the level of infectious virus in the plasma (FIV Wo isolate [2]; three-quarters of the cats, 3 weeks after the test, versus control cats) | Binding of the sera to p25, 3 weeks after the virulence test [3] | Binding of the sera to p25, 4 weeks after the virulence test [3] | Binding of the sera to p25, 5 weeks after the virulence test [3] | response to the p25 protein ([3]; at 5 weeks after the test) | effect of sera on infection with FIV Wo (reduction of infectivity) (FIV Wo) | level of viral RNA in the spleen (FIV Wo isolate [4]) | levels of viral RNA in the axillary lymphatic ganglia (FIV Wo isolate [4]) | development of an antiviral humoral response after the virulence test [5] | antibody response with respect to the SU2 peptide (SU2 envelope peptide; 5 weeks after the test) | Binding of the sera to SU2, 3 weeks after the virulence test (SU2 envelope peptide; [7]) [optical density] | Binding of the sera to SU2, 4 weeks after the virulence test (SU2 envelope peptide; [7]) [optical density] | Binding of the sera to SU2, 5 weeks after the virulence test (SU2 envelope peptide; [7]) [optical density] | cats whose sera immunoprecipitate the envelope glycoproteins of the Petaluma strain [6] |
| --- | --- | --- | --- | --- | --- | --- | --- | --- | --- | --- | --- | --- | --- | --- | --- | --- |
| KKGLQQLQEWEDWVGWIGN [TM3-19, 19-amino-acid fragment of the TM3 domain of the FIV Wo Env transmembrane glycoprotein (759-777)] | only the sera of 2 cats (346, 347) | 1 TCID50/ml of plasma (3×) and 1 × 10^2 TCID50/ml of plasma | about 3 logs | 0 optical density (2×) and 0.2 optical density and 0.1 optical density | 0.1 optical density and 2.3 optical density and 0 optical density (2×) | 0.6 optical density and 2.3 optical density and 0 optical density and 0.1 optical density | one cat (348) immunized with the TM3-19 peptide does not respond and among the other 3 cats, 2 animals (346, 349) develop only weak responses | do not modify the infection | particularly low in one cat (348) | lower in three cats (346, 348 and 349) | weaker and retarded in 3 cats (346, 348, 349) | none of the cats immunized with the TM3-19 peptide developed a detectable antibody response | 0 | 0 | 0 | – |
| SU2: peptide of the SU2 domain of the FIV surface envelope glycoprotein, SEQ ID NO: 2, used as immunogen (RAISSWKQRNRWEWRPD) | – | – | – | 0 optical density | 0.2 optical density (2×) and 0.4 optical density and 0 optical density | 1.1 optical density and 1.3 optical density and 1.9 optical density and 0.2 optical density | – | do not modify the infection | – | – | – | – | – | – | – | 3 of the 4 cats (324, 325 and 327) |
